Results as given in publication PMC11532494 (Nature Communications, 2024).
Several values for one entry are separate records, joined by “and”; a condition that tells them apart may be missing. Equal values may be shown once. Read-outs that look alike come from different tables or passages of the source. No end group written: not given here. *: point of attachment. AMC = Cc1cc(=O)oc2cc(N*)ccc12

Key:
[1] = tested on: VcHdaH (5b); assay: Acetyl-polyamine deacetylase assay; type: biochemical, Vibrio cholerae; settings: VcHdaH (5b) 6µM; single samples (replicates)
[2] = tested on: RsPrpH (1b); assay: Acetyl-polyamine deacetylase assay; type: biochemical, Rhizorhabdus sp.; settings: RsPrpH 3µM; single samples (replicates)
[3] = target: T1, BsAcuC (2c) (Bacillus subtilis, UniProt P39067); assay: Acetyl-polyamine deacetylase assay; type: biochemical; settings: BsAcuC (2c) 3µM; single samples (replicates)
T1 construct: made in house; host or cells: E. coli BL21 (DE3)
T1 sequence (P39067 1-387): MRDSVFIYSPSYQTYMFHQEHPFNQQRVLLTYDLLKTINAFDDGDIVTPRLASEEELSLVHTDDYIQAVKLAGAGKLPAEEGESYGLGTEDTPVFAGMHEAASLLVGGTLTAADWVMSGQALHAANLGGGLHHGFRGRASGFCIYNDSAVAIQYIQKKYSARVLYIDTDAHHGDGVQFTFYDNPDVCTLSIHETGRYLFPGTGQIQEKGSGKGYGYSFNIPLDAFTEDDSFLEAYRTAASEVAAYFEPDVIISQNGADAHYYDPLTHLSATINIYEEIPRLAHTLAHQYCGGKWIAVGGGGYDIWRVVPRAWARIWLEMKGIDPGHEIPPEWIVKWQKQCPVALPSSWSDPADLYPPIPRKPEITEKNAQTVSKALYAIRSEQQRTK

[4] = target: T2, KpHdaH (1b) (Klebsiella pneumoniae, UniProt A0A377Z5F6); type: biochemical; settings: KpKDAC (1b); single samples (replicates)
Target sequence in this assay (A0A377Z5F6 1-371): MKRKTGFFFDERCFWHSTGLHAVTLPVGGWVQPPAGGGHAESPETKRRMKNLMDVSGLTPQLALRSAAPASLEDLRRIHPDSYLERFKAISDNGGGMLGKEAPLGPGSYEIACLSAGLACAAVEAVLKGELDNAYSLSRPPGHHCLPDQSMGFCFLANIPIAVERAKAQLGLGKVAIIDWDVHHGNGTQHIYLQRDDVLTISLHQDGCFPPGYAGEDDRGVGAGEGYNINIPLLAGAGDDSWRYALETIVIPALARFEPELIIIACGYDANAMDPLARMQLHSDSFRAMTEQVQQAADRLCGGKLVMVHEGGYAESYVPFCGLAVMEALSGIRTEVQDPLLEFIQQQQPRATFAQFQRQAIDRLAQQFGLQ

[5] = target: PA1409 (Pseudomonas aeruginosa, UniProt Q9I3T5); assay: Acetyl-polyamine deacetylase assay (positive control); type: biochemical; settings: PA1409 (positive control enzyme); single samples (replicates)
Sequence of PA1409 (Q9I3T5 whole entry): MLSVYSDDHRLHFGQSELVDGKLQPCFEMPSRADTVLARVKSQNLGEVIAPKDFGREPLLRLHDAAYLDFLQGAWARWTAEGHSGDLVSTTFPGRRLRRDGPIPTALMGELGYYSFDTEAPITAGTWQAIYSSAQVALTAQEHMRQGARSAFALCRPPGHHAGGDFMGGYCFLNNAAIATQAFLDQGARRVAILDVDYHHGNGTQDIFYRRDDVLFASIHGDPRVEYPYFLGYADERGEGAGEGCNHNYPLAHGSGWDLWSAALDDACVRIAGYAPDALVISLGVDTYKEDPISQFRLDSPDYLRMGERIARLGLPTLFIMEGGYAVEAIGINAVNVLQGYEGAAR

[6] = tested on: VsHdaH (1b); type: biochemical, Vibrio sp.; settings: VsHdaH (1b) 3µM; single samples (replicates)
[7] = target: T3, RwDmhA (1b) (Rhizorhabdus wittichii, UniProt A0A067XIQ6); type: biochemical; settings: RwDmhA (1b) 3µM; single samples (replicates)
Target sequence in this assay (A0A067XIQ6 1-369): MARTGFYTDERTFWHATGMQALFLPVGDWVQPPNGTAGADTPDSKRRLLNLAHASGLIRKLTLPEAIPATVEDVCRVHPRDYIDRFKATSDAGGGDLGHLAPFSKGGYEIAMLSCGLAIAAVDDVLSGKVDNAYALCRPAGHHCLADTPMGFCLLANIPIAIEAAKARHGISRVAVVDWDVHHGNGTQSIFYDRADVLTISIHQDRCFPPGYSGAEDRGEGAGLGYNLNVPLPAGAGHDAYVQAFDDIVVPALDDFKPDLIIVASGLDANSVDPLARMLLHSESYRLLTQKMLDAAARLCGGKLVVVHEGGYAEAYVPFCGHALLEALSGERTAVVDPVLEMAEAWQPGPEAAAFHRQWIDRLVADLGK

[8] = tested on: RsPrpH (1b); assay: Substrate screening assay (acyl-peptide-AMC); type: biochemical, Rhizorhabdus sp.; settings: RsPrpH (1b); for [AMC]: Transform RFU in [AMC]
[9] = tested on: Controls; assay: Substrate screening assay (acyl-peptide-AMC), control enzymes; type: biochemical; settings: for [AMC]: Transform RFU in [AMC]
[10] = target: PsApaH (4) (Pseudomonas sp. M30-35, UniProt A0A1Y0KY79); type: biochemical; settings: PsApaH (4)
Protocol: (§1) Experiments with SIRT2 and SIRT5 were supplemented with NAD^+ (500 µM). Thereafter, a solution of trypsin (25 µL, 5.0 mg/mL; final concentration of 2.5 mg/mL) was added, and the development of the assay was allowed to proceed for 90 min at room temperature before fluorescence analysis. […] To this end, a single category is given to all conversions >48% on the heatmap. […] For the H4-derived peptide LGKbio no positive control was available.

[11] = target: T2, KpHdaH (1b); type: biochemical; settings: KpHdaH (1b)
[12] = tested on: VsHdaH (1b); type: biochemical, Vibrio sp.; settings: VKDAC
[13] = target: T3, RwDmhA (1b); type: biochemical; settings: RwDmhA (1b)
[14] = target: T1, BsAcuC (2c); assay: Substrate screening assay (acyl-peptide-AMC); type: biochemical; settings: BsAcuC (2c); for [AMC]: Transform RFU in [AMC]
Protocol: as §1

[15] = tested on: VcHdaH (5b); type: biochemical, Vibrio cholerae; settings: VcHdaH (5b); for [AMC]: Transform RFU in [AMC]
[16] = target: LcApaH (3) (Legionella cherrii, UniProt A0A0W0SGS1); type: biochemical
[17] = Transform RFU*2, Controls, Sample 1
[18] = Transform RFU*2, Controls, Sample 2

Compound: CC(=O)NCCCNCCCCNCCCN [N1-acetyl-spermine]
- acetate released, g/l [1]: -0.0009138 g/L and -0.003003 g/L and -0.003264 g/L
- acetate released, mM [1]: -0.01522 mM and -0.05 mM and -0.05435 mM
- mM normalized to enzyme concentration [1]: -0.002536 mM and -0.008333 mM and -0.009058 mM
- acetate released, g/l [2]: -0.0006527 g/L and -0.0001305 g/L and -0.004569 g/L
- acetate released, mM [2]: -0.01087 mM and -0.002174 mM and -0.07609 mM
- mM normalized to enzyme concentration [2]: -0.003623 mM and -0.0007246 mM and -0.02536 mM
- acetate released, g/l [3]: 0.002742 g/L and 0.0001305 g/L
- acetate released, mM [3]: 0.04565 mM and 0.002174 mM
- mM normalized to enzyme concentration [3]: 0.01522 mM and 0.0007246 mM
- acetate released, g/l [4]: 0.02153 g/L and 0.02371 g/L and 0.03188 g/L
- acetate released, mM [4]: 0.3585 mM and 0.3948 mM and 0.5309 mM
- mM normalized to enzyme concentration [4]: 0.07169 mM and 0.07895 mM and 0.1062 mM
- acetate released, g/l [5]: 0.1471 g/L and 0.1516 g/L
- acetate released, mM [5]: 2.449 mM and 2.524 mM
- mM normalized to enzyme concentration [5]: 24.4938 mM and 25.2427 mM
- acetate released, g/l [6]: -0.003525 g/L and 0.003264 g/L and 0.003525 g/L
- acetate released, mM [6]: -0.0587 mM and 0.05435 mM and 0.0587 mM
- mM normalized to enzyme concentration [6]: -0.01957 mM and 0.01812 mM and 0.01957 mM
- acetate released, g/l [7]: 0.0001305 g/L
- acetate released, mM [7]: 0.002174 mM and -0.002174 mM
- mM normalized to enzyme concentration [7]: -0.01812 mM and 0.0007246 mM and -0.0007246 mM

Compound: QPKKdec (QPKK-{AMC}; not fully specified (residue 4); printed as QPKKdec; also: decanoyl-lysine (which Lys not given here); UniProt P04637 317-320, looked up, fragment)
- Relative Fluorescene Units (RFU) ([8]; Sample 1): 32 RFU
- Relative Fluorescene Units (RFU) ([8]; Sample 2): 43 RFU
- [AMC] ([8]; Sample 1): 31.25 nM
- [AMC] ([8]; Sample 2): 41.99 nM
- Relative Fluorescene Units (RFU) ([8]; Transform RFU*2, Sample 1): 64 RFU
- Relative Fluorescene Units (RFU) ([8]; Transform RFU*2, Sample 2): 86 RFU
- Relative Fluorescene Units (RFU) [9]: 14990 RFU and 17431 RFU
- [AMC] ([9]; Controls, Sample 1): 14.63867 µM
- [AMC] ([9]; Controls, Sample 2): 17.02246 µM
- Relative Fluorescene Units (RFU) [9, 17]: 29980 RFU
- Relative Fluorescene Units (RFU) [9, 18]: 34862 RFU
- Relative Fluorescene Units (RFU) ([10]; Sample 1): 94 RFU
- Relative Fluorescene Units (RFU) ([10]; Sample 2): 100 RFU
- Relative Fluorescene Units (RFU) ([10]; Transform RFU*2, Sample 1): 188 RFU
- Relative Fluorescene Units (RFU) ([10]; Transform RFU*2, Sample 2): 200 RFU
- Relative Fluorescene Units (RFU) ([11]; Sample 1): 50 RFU
- Relative Fluorescene Units (RFU) ([11]; Sample 2): 66 RFU
- Relative Fluorescene Units (RFU) ([11]; Transform RFU*2, Sample 1): 100 RFU
- Relative Fluorescene Units (RFU) ([11]; Transform RFU*2, Sample 2): 132 RFU
- Relative Fluorescene Units (RFU) ([12]; Transform RFU*2, Sample 1): 126 RFU
- Relative Fluorescene Units (RFU) ([12]; Transform RFU*2, Sample 2): 202 RFU
- Relative Fluorescene Units (RFU) ([12]; Sample 1): 63 RFU
- Relative Fluorescene Units (RFU) ([12]; Sample 2): 101 RFU
- Relative Fluorescene Units (RFU) ([13]; Sample 1): 19 RFU
- Relative Fluorescene Units (RFU) ([13]; Sample 2): 47 RFU
- Relative Fluorescene Units (RFU) ([13]; Transform RFU*2, Sample 1): 38 RFU
- Relative Fluorescene Units (RFU) ([13]; Transform RFU*2, Sample 2): 94 RFU
- Relative Fluorescene Units (RFU) ([14]; Sample 1): 1598 RFU
- Relative Fluorescene Units (RFU) ([14]; Sample 2): 1156 RFU
- [AMC] ([14]; Sample 1): 1560.55 nM
- [AMC] ([14]; Sample 2): 1128.91 nM
- Relative Fluorescene Units (RFU) ([14]; Transform RFU*2, Sample 1): 3196 RFU
- Relative Fluorescene Units (RFU) ([14]; Transform RFU*2, Sample 2): 2312 RFU
- [AMC] ([15]; Sample 1): 77.15 nM
- [AMC] ([15]; Sample 2): 27.34 nM
- Relative Fluorescene Units (RFU) ([15]; Transform RFU*2, Sample 1): 158 RFU
- Relative Fluorescene Units (RFU) ([15]; Transform RFU*2, Sample 2): 56 RFU
- Relative Fluorescene Units (RFU) ([15]; Sample 1): 79 RFU
- Relative Fluorescene Units (RFU) ([15]; Sample 2): 28 RFU
- [AMC] [16]: 143.55 nM and 182.62 nM

Compound: QPKKmyr (QPKK-{AMC}; not fully specified (residue 4); printed as QPKKmyr; also: myristoyl-lysine (which Lys not given here); UniProt P04637 317-320, looked up, fragment)
- Relative Fluorescene Units (RFU) ([8]; Sample 1): -108 RFU
- Relative Fluorescene Units (RFU) ([8]; Sample 2): -824 RFU
- [AMC] ([8]; Sample 1): -105.47 nM
- [AMC] ([8]; Sample 2): -804.69 nM
- Relative Fluorescene Units (RFU) ([8]; Transform RFU*2, Sample 1): -216 RFU
- Relative Fluorescene Units (RFU) ([8]; Transform RFU*2, Sample 2): -1648 RFU
- Relative Fluorescene Units (RFU) [9]: 6155 RFU and 7393 RFU
- [AMC] ([9]; Controls, Sample 1): 6.01074 µM
- [AMC] ([9]; Controls, Sample 2): 7.21973 µM
- Relative Fluorescene Units (RFU) [9, 17]: 12310 RFU
- Relative Fluorescene Units (RFU) [9, 18]: 14786 RFU
- Relative Fluorescene Units (RFU) ([10]; Sample 1): 40 RFU
- Relative Fluorescene Units (RFU) ([10]; Sample 2): 113 RFU
- Relative Fluorescene Units (RFU) ([10]; Transform RFU*2, Sample 1): 80 RFU
- Relative Fluorescene Units (RFU) ([10]; Transform RFU*2, Sample 2): 226 RFU
- Relative Fluorescene Units (RFU) ([11]; Sample 1): 178 RFU
- Relative Fluorescene Units (RFU) ([11]; Sample 2): 116 RFU
- Relative Fluorescene Units (RFU) ([11]; Transform RFU*2, Sample 1): 356 RFU
- Relative Fluorescene Units (RFU) ([11]; Transform RFU*2, Sample 2): 232 RFU
- Relative Fluorescene Units (RFU) ([12]; Transform RFU*2, Sample 1): 354 RFU
- Relative Fluorescene Units (RFU) ([12]; Transform RFU*2, Sample 2): -1178 RFU
- Relative Fluorescene Units (RFU) ([12]; Sample 1): 177 RFU
- Relative Fluorescene Units (RFU) ([12]; Sample 2): -589 RFU
- Relative Fluorescene Units (RFU) ([13]; Sample 1): -346 RFU
- Relative Fluorescene Units (RFU) ([13]; Sample 2): -865 RFU
- Relative Fluorescene Units (RFU) ([13]; Transform RFU*2, Sample 1): -692 RFU
- Relative Fluorescene Units (RFU) ([13]; Transform RFU*2, Sample 2): -1730 RFU
- Relative Fluorescene Units (RFU) ([14]; Sample 1): 313 RFU
- Relative Fluorescene Units (RFU) ([14]; Sample 2): 767 RFU
- [AMC] ([14]; Sample 1): 305.66 nM
- [AMC] ([14]; Sample 2): 749.02 nM
- Relative Fluorescene Units (RFU) ([14]; Transform RFU*2, Sample 1): 626 RFU
- Relative Fluorescene Units (RFU) ([14]; Transform RFU*2, Sample 2): 1534 RFU
- [AMC] ([15]; Sample 1): -96.68 nM
- [AMC] ([15]; Sample 2): -269.53 nM
- Relative Fluorescene Units (RFU) ([15]; Transform RFU*2, Sample 1): -198 RFU
- Relative Fluorescene Units (RFU) ([15]; Transform RFU*2, Sample 2): -552 RFU
- Relative Fluorescene Units (RFU) ([15]; Sample 1): -99 RFU
- Relative Fluorescene Units (RFU) ([15]; Sample 2): -276 RFU
